Broadly, the melting point is the temperature, or range, at which the solid turns liquid.

In turn, `COc1ccc2c(c1OC)CN(C=O)CCc1cc(OCc3ccccc3)ccc1CC2` displayed a melting point of 140 to 141 °C. To `CNC1(C)CN(c2cc3c(cc2F)c(=O)c2c(=O)[nH]sc2n3C2CC2)C1` belongs 286 to 290 °C. As for `OC(CCN1CC=C(c2ccc(Cl)cc2)CC1)c1ccc(Cl)cc1` (stereo unspecified), the figure is 154 to 155 °C; as for `O=[N+]([O-])c1cc(Oc2ccc(Oc3cc([N+](=O)[O-])cc(C(F)(F)F)c3)cc2)cc(C(F)(F)F)c1`, 163 °C. To `COc1ccc(/C=C/C(=O)CC(=O)/C=C/c2ccc(O)cc2Cl)cc1O` belongs 120 to 130 °C. The molecule `COCOc1ccc(C=CC(=O)c2ccc(OCc3ccccc3)cc2OC(C)=O)c(OCc2ccccc2)c1` showed a melting point of 94 to 96 °C.

`COc1ccc2c(c1O)CCN(C=O)[C@@H]2c1cc(OC)c(OC)c(OC)c1` registered a melting point of 190 to 192 °C. As for `COC1=C(OC)C(=O)C2=C(CCC(CCOc3ccc(Cl)cc3)CC2)C1=O`, the figure is 117 to 119 °C; as for `COc1cc(Br)c2oc(-c3ccc(OC)c(C(F)(F)F)c3)nc2c1`, 183 to 185 °C; as for `O=C(CCc1cccnc1)C12CC3CC(CC(C3)C1)C2`, 43 to 44.5 °C.

For the molecule `O=C1c2ccccc2C(O)N1c1ccc2ncccc2n1` (stereo unspecified), the melting point was determined as 208 °C. To `CC(=O)c1cc(C(F)(F)F)cc(S(N)(=O)=O)c1` belongs 157 to 159 °C; to `COc1ccc(-c2ccccc2C)cc1C=O`, 66 to 69 °C.

In turn, `CCSc1ccc(NC(=S)NC(=O)OC)c([N+](=O)[O-])c1` came in with a melting point of 152 °C.

For the molecule `OCCN(CCO)Cc1nnc2n1-c1ccc(Cl)cc1C(c1ccccc1)=NC2`, the melting point was 84 to 87 °C. In the case of `O=C(O)CCCCCCNS(=O)(=O)c1ccc(Cl)cc1`, the melting point lay within 128 to 129 °C. To `CS(=O)(=O)c1c(C#N)nn(-c2c(Cl)cc(C(F)(F)F)cc2Br)c1N` belongs 235 to 238 °C; to `COc1ccc(/C=C/[N+](=O)[O-])c(F)c1`, 80 to 82 °C.

In turn, `NC(=O)CCc1conc1-c1ccc(Cl)cc1` returned a melting point of 158 to 159 °C. To `CCSC1CC2(C)C(CCC3C4CCC(C(C)=O)C4(C)CC(=O)C32)CC1O` (stereo unspecified) belongs 170 to 173 °C; to `CCOC(=O)C1=C(C)Nc2cc[nH]c(=O)c2C1c1ccccc1F` (stereo unspecified), 183 to 184 °C; to `Fc1ccccc1-c1ccc(Br)cc1F`, 45 to 46 °C. As for `COc1cc2ncnc(N3CCN(C(=O)Nc4ccc(N)cc4)CC3)c2cc1OC`, the figure is 215 to 217 °C; as for `CCC(O)(CC)c1ccc(Cl)c2nc3n(c12)CCCN3c1ccc(Cl)cc1C(F)(F)F`, 178 to 180 °C; as for `COc1ccc2c(c1OC)CC[C@H]2NC(C)=O`, 175 °C. On to `Nc1c(-c2cccc(Oc3ccccc3)c2)c(=O)[nH]c2cc(Cl)ccc12`, for which the melting point lay in the range of 196 to 197 °C.

As for `COn1c(C)nn(-c2cc(F)c(C#N)cc2Cl)c1=O`, the melting point was found to be 102 °C. To `Cn1nc(-c2nc(C#N)c(C#N)nc2-c2ccccc2)ccc1=O` belongs 210 to 212 °C; to `CS(=O)(=O)c1ccc(-c2oc(CO)cc(=O)c2Oc2ccc(F)cc2F)cc1`, 205 °C; to `COc1cc(CN2CCN(C(=O)c3ccc4c(c3)C(=O)C3(CC3)O4)CC2)cc(OC)c1OC`, 196 to 198 °C. As for `CC(C)c1nc(-c2ccccc2Cc2ccccc2)cc(-c2ccc(F)cc2)c1C=O`, the figure is 205 to 207 °C; as for `COc1ccc(COc2c(O)cc3c(c2Cl)CCN(C(=O)OC(C)(C)C)CC3c2ccc(O)cc2)cc1` (stereo unspecified), 190 to 192 °C; as for `CC(C)=CC(=S)Nc1ccccc1`, 175 °C. Molecule `Cc1cc(NC(=O)OC(C)(C)C)c(N)cc1-c1ccccc1` gave a melting point of 122 °C.

Regarding `CCN(CC)CCC(=O)NC1(c2ccccc2Cl)C(=O)Nc2ccc(Cl)cc21` (stereo unspecified), the melting point was in the range of 176 to 178 °C. As for `CCOc1cc2ncc(C#N)c(Nc3ccc(F)cc3)c2cc1OCC`, the figure is 177 to 181 °C; as for `CS(=O)(=O)c1ccc(-n2cc(COCc3ccccc3)nc2-c2ccc(Cl)cc2)cc1`, 64 to 65 °C; as for `CC(C)(C)NC(=O)Nc1ccc2oc3c(c2c1)CCCC3`, 310 to 312 °C. As for `CC1=C(C(=O)OC(C)C)C(c2cccc([N+](=O)[O-])c2)C(C(=O)OC2CN(C(c3ccccc3)c3ccccc3)C2)=C(N)N1` (stereo unspecified), the figure is 95 to 98 °C. As to `Clc1cccc(Nc2ncnc3[nH]nc(NCc4ccc5c(c4)OCO5)c23)c1`, the melting point lay in the range of 220 to 222 °C. For the molecule `CCCCn1nc(C)c(C(=O)O)c1Cc1ccc(-c2ccccc2S(=O)(=O)NC(=O)OC(C)(C)C)cc1`, the melting point fell in the range of 92 to 96 °C. As for `COc1ccc(C2Sc3c(ccc4ccccc34)N(CCN(C)C)C(=O)C2OC(=O)c2ccc(OC)c(OC)c2)cc1` (stereo unspecified), the figure is 182 to 183 °C. As for `O=C(O)c1cccc(CN2CCC(c3cn(Cc4ccco4)c4ccccc34)CC2)c1`, the figure is 154 to 155 °C. As for `O=C1NC(=O)c2c1c(-c1ccccc1Cl)cc1c2ccn1CCCO`, the figure is 225 to 227 °C; as for `COC(=O)COc1ccc(C(=O)CN(C)C(=O)c2ccc(C(=N)N)cc2)cc1OCC(=O)OC`, 177 to 178 °C. Molecule `O=c1c2cnc(-c3ccccc3)nc2sn1Cc1ccccn1` came in with a melting point of 154 to 156 °C. To `COc1cc2cc(Cl)nc(N3CCN(C(=O)Nc4ccc([N+](=O)[O-])cc4)CC3)c2cc1OC` belongs 227 to 228 °C; to `COc1cc2cc(/C=C/c3ccccc3)[nH]c2cc1OCc1ccccc1`, 140 to 145 °C. To `NCCc1c[nH]c2ccc3c(=O)n(CC4CCCCO4)ccc3c12` (stereo unspecified) belongs 260 to 262 °C. To `COc1ccc(-n2nc(OC(C)C)cc2-c2ccc(OCCNC(N)=O)cc2)cn1` belongs 120 °C; to `COCCN(C)C(=O)c1cc2c(nc(C)n2C)c2c1CCC1(Cc3ccccc3C1)N2`, 160 to 161 °C; to `N#CCN[C@H]1CCc2c(F)cc(F)cc2C1`, 73 to 76 °C.

On to `N#Cc1ccccc1C(F)(F)C(F)(F)c1ccc(F)cc1`, for which the melting point lay within 90 to 93 °C. To `CCOC(=O)C(C(=O)NCc1ccccc1)=C1SC=CS1` belongs 79 to 81 °C; to `Cc1cc(F)ccc1-c1cc(OC2SCC(O)C(O)C2O)ccn1` (stereo unspecified), 147 °C; to `CCOC(=O)c1c(C(C)C)c2n(c1-c1ccc(F)cc1)CCCC2`, 76 to 78 °C. To `CCOC(=O)c1ccc(N)c(Cl)c1` belongs 82 to 83 °C; to `Cc1c(Br)ccc(S(C)(=O)=O)c1C1=NOC(CCl)(CCl)C1`, 144 to 145 °C.

In turn, `c1ccc(OCCCN2CCC(CNc3nc4ccccc4s3)CC2)cc1` displayed a melting point of 114 °C.

Molecule `Cc1cc2c(s1)c(=O)c(C(N)=O)cn2C` yielded a melting point of 328 to 330 °C. To `COc1ccc2c(c1)C(=O)C(=Cc1c[nH]c3ccccc13)CO2` belongs 217 to 219 °C; to `COc1ccc(C(=O)Nc2ccccc2)cc1NS(=O)(=O)c1ccc(C(=O)O)cc1`, 212 to 214 °C; to `COC(=O)c1cccc(SCc2c(O[C@H](Cn3ccnc3)c3ccccc3)ccc3c2CCCC3=O)c1`, 65 °C. To `CCCCCCCCCCN(OCc1ccccc1)C(=O)Nc1c(C(C)C)cccc1C(C)C` belongs 91 to 93 °C; to `CC(C)(C)OC(=O)N1CCC(N2CCN(CCCN3CCCCC3)C2=C(C#N)C#N)CC1`, 141 to 143 °C; to `CCOC(=O)c1c(S(C)(=O)=O)n(C2CC2)c2c(OC)c(F)c(F)cc2c1=O`, 177 to 178 °C. `CC12CCC(C(=O)O)=CC1=CCC1C2CCC2(C)C(C(=O)C3CCCCC3)CCC12` (stereo unspecified) gave a melting point of 217 to 220 °C. As for `O=c1cc(NCCN2CCN(c3ncccn3)CC2)cn[nH]1`, the figure is 199 to 201 °C.

`CC(C)(C)c1ccc(-c2ccc(C(CCC(=O)O)=NO)cc2)cc1` showed a melting point of 170 to 172 °C. Regarding `CCOC(=O)c1cc(NCc2ccccc2)c(Nc2ccc(C)cc2C)c(S(N)(=O)=O)c1`, the melting point was 167 to 168 °C. As for `CSC(c1ccc(Cl)cc1)C(C(O)C(C)(C)C)n1cncn1` (stereo unspecified), the figure is 58 to 60 °C. As for `COc1cc(OC)cc(C(=O)N[C@H]2CCN(C)C[C@H]2c2ccccc2)c1` (relative stereo), the figure is 123 to 124 °C.

Consider `NC(=O)/C=C1/c2cc(F)ccc2CC1O` (stereo unspecified), for which the melting point was in the range of 201 to 202 °C. As for `N#Cc1ccc(N(CCCCOc2ccc(O)cc2)n2cnnc2)cc1`, the figure is 156 to 159 °C. As for `OC1CC=C(c2ccc(C(F)(F)F)cc2)CC1` (stereo unspecified), the melting point was 104 to 106 °C. With `CCCc1c(SCCCOc2ccc3c(=O)cc(C(=O)OCC)oc3c2CCC)ccc(C(C)=O)c1N`, the melting point lay within 103 to 104 °C. As for `CC(NC(=O)C(Cc1ccc(OCc2ccccc2)cc1)NC(=O)OC(C)(C)C)C(=O)O` (stereo unspecified), the figure is 160 to 162 °C; as for `COc1cc(O)c2c(c1)OC(C(C)(C)C=O)CC2=O` (stereo unspecified), 93 to 94 °C; as for `CC(C(=O)O)c1ccc(Cc2ccccc2CC(=O)O)cc1` (stereo unspecified), 135 to 137 °C.

Molecule `CC(C)(C)COc1cccc(C[C@@H](NC(=O)c2cccc3c(Cl)cccc23)[C@@H](O)c2cccc(Cl)c2)c1` (racemic) came in with a melting point of 142 to 143 °C. As for `CCOC(=O)c1ccc(-n2nc(C(F)(F)F)cc2-c2ccc(S(C)(=O)=O)cc2)cc1`, the figure is 159 to 161 °C; as for `CC(C)CC(CC(=O)NO)C(=O)N[C@H]1Cc2cn(c3ccccc23)CCCCCCCNC1=O` (stereo partly specified), 197 to 201 °C; as for `CNC(=O)Nc1ccc(CN2OCC(C)(C)C2=O)c(Cl)c1`, 227 to 229 °C.

The molecule `c1ccc2c(c1)CCc1ccccc1C2Nc1ccncc1` came in with a melting point of 263 to 264 °C.

`CCCCNC(=O)Nc1cc(Cl)ccc1C(=O)NCC1CCN(C(c2ccccc2)c2ccccc2)CC1` gave a melting point of 195 to 197 °C.

On to `COc1cc(Nc2c(C#N)cnc3cc(-c4csc(CN5CCOCC5)c4)c(OC)cc23)c(Cl)cc1Cl`, for which the melting point was in the range of 148 to 150 °C.

Source of the values: a melting point compilation (Tetko et al.; mined from patent text by program, amines drawn as free bases though some values may be those of a salt).
